{
  "source": "patent US6323195A",
  "about": "“Galanthamine derivatives as acetylcholinesterase inhibitors” (priority 1993, dated 2001)",
  "key": {"acetylcholinesterase": {"biological_target": "acetylcholinesterase (Homo sapiens, UniProt P22303)", "sequence (P22303 32-614)": "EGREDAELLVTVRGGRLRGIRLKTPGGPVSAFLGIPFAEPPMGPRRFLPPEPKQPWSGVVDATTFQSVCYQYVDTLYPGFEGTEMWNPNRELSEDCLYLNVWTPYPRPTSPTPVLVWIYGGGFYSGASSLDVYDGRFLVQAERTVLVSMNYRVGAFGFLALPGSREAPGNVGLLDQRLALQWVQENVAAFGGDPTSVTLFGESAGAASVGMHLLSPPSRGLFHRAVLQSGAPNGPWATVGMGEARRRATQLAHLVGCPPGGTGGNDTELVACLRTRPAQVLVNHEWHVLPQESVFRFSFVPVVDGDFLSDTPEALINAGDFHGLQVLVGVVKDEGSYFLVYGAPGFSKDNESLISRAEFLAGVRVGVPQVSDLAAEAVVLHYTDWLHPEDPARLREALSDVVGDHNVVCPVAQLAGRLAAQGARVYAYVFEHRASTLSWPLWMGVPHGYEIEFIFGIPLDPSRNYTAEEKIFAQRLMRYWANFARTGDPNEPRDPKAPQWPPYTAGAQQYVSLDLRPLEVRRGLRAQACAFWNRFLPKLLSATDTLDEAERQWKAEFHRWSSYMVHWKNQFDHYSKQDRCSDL", "assay": "Acetylcholinesterase Inhibition Assay (photometric method of Ellman et al.)", "assay_type": "biochemical"}, "mice": {"system": "mice", "assay_type": "in vivo", "details": "SDDA Dose 0.003 mg/kg, s.c., retest after 24 hours", "procedure": "This utility can also be ascertained by determining the ability of these compounds to restore cholinergically deficient memory in the Dark Avoidance Assay. In this assay mice are tested for their ability to remember an unpleasant stimulus for a period of 24 hours. A mouse is placed in a chamber that contains a dark compartment; a strong incandescent light drives it to the dark compartment, where an electric shock is administered through metal plates on the floor. The animal is removed from the testing apparatus and tested again, 24 hours later, for the ability to remember the electric shock.\nIf scopolamine, an anticholinergic that is known to cause memory impairment, is administered before an animal's initial exposure to the test chamber, the animal re-enters the dark compartment shortly after being placed in the test chamber 24 hours later. This effect of scopolamine is blocked by an active test compounds, resulting in a greater interval before reentry into the dark compartment.\nThe test results are expressed as the percent of a group of animals in which the effect of scopolamine is blocked, as manifested by an increased interval between being placed in the test chamber and reentering the dark compartment. Results of Dark Avoidance Assay for some of the compounds of this invention are presented in Table II along with a result for a reference compounds."}},
  "note": "Structures can show the parent of a compound that is named as a salt.",
  "data": [
    {"smiles": "CN1CC[C@@]23C=C[C@H](O)C[C@@H]2Oc2c(OC(=O)N4CCc5ccccc5C4)ccc(c23)C1", "note": "[Example 2, (6-O-Demethyl)-6-O-(1,2,3,4-tetrahydroisoquinolin-2-yl)carbonyl]-galanthamine hydrochloride]", "values": [
      {"measurement": "IC50", "setting": "acetylcholinesterase", "value": 0.9, "unit": "nM"},
      {"measurement": "Percent of Animals with Scopolamine Induced Memory Deficit Reversal", "setting": "mice", "value": "27% of Animals"}
    ]}
  ]
}
